Assay results reported in patent publication US6924099B1, “Biomarkers and assays for carcinogenesis” (G.D. Searle & Co., priority 1999, dated 2005).

Legend:
rat liver mRNA [1] = experiment: Validation of AFLP biomarkers by rt-PCR (Taqman) in liver of phenobarbital-treated rats; assay type: in vivo; settings: for Fold Change 2-week: 2 weeks phenobarbital; for Fold Change 13-week: 13 weeks phenobarbital 200 mg/kg oral gavage
Experimental: After AFLP experiments were conducted, and results analyzed, the effects of phenobarbital on the expression of several biomarkers were validated. RNA was extracted from the same liver samples used in the AFLP study, in addition to liver samples from rats treated with phenobarbital for 2-weeks, followed by reverse transcription reactions to generate cDNA, followed by PCR, using Taqman technology. The genes analyzed for phenobarbital-induced alterations, and the corresponding AFLP sequence numbers are listed in Table 5, and a graph and a chart of the actual results are in Table 6 and FIG. 1.
Eleven of the 17 (65%) genes analyzed were also determined to be differentially expressed using rt-PCR. However, this is based on comparisons at the same timepoint (13 weeks). When the rt-PCR analyses performed on the 2 week samples are considered, another marker (S-033) is found to be differentially expressed. Theoretically, differences in sensitivity and or specificity between the two techniques could be accounted for these minor discrepancies. However, S-033 is an example of how AFLP has identified biomarkers which are optimal for carcinogen detection at timepoints other than 13 weeks.

[2] = tested on: cellular mRNAs in rat liver; experiment: AFLP-based Transcript Imaging of liver mRNAs of phenobarbital-treated rats; assay type: in vivo; settings: for Fold Change AFLP: 13 weeks phenobarbital 200 mg/kg oral gavage
Experimental: Rats were treated with phenobarbital for thirteen weeks or in a separate experiment, for 5 days. Liver mRNAs were extracted and probed for those mRNAs specifically altered by phenobarbital treatment by comparing with mRNA expression in untreated rats. The relative abundance of cellular mRNAs in rat liver was determined using PE GenScope's AFLP (Amplified Fragment Length Polymorphism)-based Transcript Imaging technology. The mRNA is converted into double-stranded cDNA, which is then cut with restriction enzymes. The resulting restriction fragments are tagged with specific adapters of known sequences, which allows for subsequent amplification of the fragments under highly stringent conditions. Similar technology has been used in plants (Money. T. et al., Nucleic Acids Res. 24:2616-2617 (1996), incorporated by reference in its entirety).

rat liver mRNA [3] = experiment: RT-PCR of mRNAs for three phenobarbital-induced genes; settings: oral gavage 200 mg/kg, 88 days or 5 days
Experimental: Specifically, rats were treated by oral gavage for 88 days in the 13 week experiment, or for 5 days with 200 mg/kg phenobarbital or control vehicle.

[4] = SEQ NO. 4 (Rat aldehyde dehydrogenase) mRNA
[5] = SEQ NO. 10 (Rat vitamin D-binding protein) mRNA
[6] = SEQ NO. 25 (Rat cytochrome B) mRNA
[7] = SEQ NO. 34 (Rat liver catalase) mRNA
[8] = SEQ NO. 38 (Rat alpha-2u globulin) mRNA
[9] = SEQ NO. 40 (Rat NADP-dep.isocitrate dehydrogenase) mRNA
[10] = SEQ NO. 42 (Mouse JAK1 (protein tyrosine kinase)) mRNA
[11] = SEQ NO. 46 (Rat cathepsin B) mRNA
[12] = SEQ NO. 52 ((s)-2-hydroxy acid oxidase) mRNA
[13] = SEQ NO. 92 (Rat nicotinic receptor alpha 7 subunit) mRNA
[14] = SEQ NO. 114 (Rat delta-aminolevulinate synthase) mRNA
[15] = SEQ NO. 116 (Estrogen sulfotransferase) mRNA
[16] = SEQ NO. 129 (Glutathione S-transferase) mRNA
[17] = SEQ NO. 230 (Rat carboxylesterase) mRNA

For `CCC1(c2ccccc2)C(=O)NC(=O)NC1=O` [phenobarbital], the “Fold Change 2-week” value (rat liver mRNA [1]; SEQ NO. 3 (Rat P-450) mRNA) was 1.34 fold, the “Fold Change 13-week” value (rat liver mRNA [1]; SEQ NO. 3 (Rat P-450) mRNA) was 1.85 fold and the “Fold Change 2-week” value (rat liver mRNA [1]; [4]) was 16.36 fold. The “Fold Change 13-week” value (rat liver mRNA [1]; [4]) was 12.88 fold, the “Fold Change 2-week” value (rat liver mRNA [1]; SEQ NO. 6 (Rat UDPGT1.1) mRNA) was 0.93 fold and the “Fold Change 13-week” value (rat liver mRNA [1]; SEQ NO. 6 (Rat UDPGT1.1) mRNA) was 1.5 fold. For the same molecule, the “Fold Change 2-week” value (rat liver mRNA [1]; [5]) was 0.66 fold, the “Fold Change 13-week” value (rat liver mRNA [1]; [5]) was 0.79 fold and the “Fold Change 2-week” value (rat liver mRNA [1]; [6]) was 1.85 fold. For the same molecule, the “Fold Change 13-week” value (rat liver mRNA [1]; [6]) was 0.75 fold, the “Fold Change 2-week” value (rat liver mRNA [1]; [7]) was 0.79 fold and the “Fold Change 13-week” value (rat liver mRNA [1]; [7]) was 0.45 fold. The “Fold Change 2-week” value (rat liver mRNA [1]; [8]) was 0.35 fold, the “Fold Change 13-week” value (rat liver mRNA [1]; [8]) was 0.03 fold and the “Fold Change 2-week” value (rat liver mRNA [1]; [9]) was 0.88 fold. For the same molecule, the “Fold Change 13-week” value (rat liver mRNA [1]; [9]) was 1.14 fold, the “Fold Change 2-week” value (rat liver mRNA [1]; [10]) was 0.8 fold and the “Fold Change 13-week” value (rat liver mRNA [1]; [10]) was 0.83 fold. For the same molecule, the “Fold Change 2-week” value (rat liver mRNA [1]; [11]) was 0.87 fold, the “Fold Change 13-week” value (rat liver mRNA [1]; [11]) was 1.41 fold and the “Fold Change 2-week” value (rat liver mRNA [1]; [12]) was 0.31 fold. For the same molecule, the “Fold Change 13-week” value (rat liver mRNA [1]; [12]) was 0.09 fold, the “Fold Change 2-week” value (rat liver mRNA [1]; [13]) was 0.45 fold and the “Fold Change 13-week” value (rat liver mRNA [1]; [13]) was 0.72 fold. The “Fold Change 2-week” value (rat liver mRNA [1]; [14]) was 1.22 fold, the “Fold Change 13-week” value (rat liver mRNA [1]; [14]) was 4.03 fold and the “Fold Change 2-week” value (rat liver mRNA [1]; [15]) was 0.81 fold. For the same molecule, the “Fold Change 13-week” value (rat liver mRNA [1]; [15]) was 0.15 fold, the “Fold Change 2-week” value (rat liver mRNA [1]; [16]) was 2.52 fold and the “Fold Change 13-week” value (rat liver mRNA [1]; [16]) was 4.03 fold. For the same molecule, the “Fold Change 2-week” value (rat liver mRNA [1]; SEQ NO. 179 (Rat UDPGT) mRNA) was 14.11 fold, the “Fold Change 13-week” value (rat liver mRNA [1]; SEQ NO. 179 (Rat UDPGT) mRNA) was 9.05 fold and the “Fold Change 2-week” value (rat liver mRNA [1]; [17]) was 4.24 fold. The “Fold Change 13-week” value (rat liver mRNA [1]; [17]) was 5.74 fold, the “Down-regulation of the sequences of Table 3 (SEQ NO 419-457)” value ([2]; 5 weeks of treatment) was “at least 1.7 fold” and the “Up-regulation of the sequences of Table 4 (SEQ NO 458-489)” value ([2]; 5 weeks of treatment) was “at least 1.7 fold”. The “Down-regulation of the sequences of Table 1 (SEQ NO 275-318)” value ([2]; 13 weeks of treatment) was “at least 1.7 fold”, the “Up-regulation of the sequences of Table 2 (SEQ NO 319-418)” value ([2]; 13 weeks of treatment) was “at least 1.7 fold” and the “Fold Change AFLP” value ([2]; SEQ NO. 3 (Rat P-450) mRNA) was 2.3 fold. For the same molecule, the “Fold Change AFLP” value [2, 4] was 8.2 fold, the “Fold Change AFLP” value ([2]; SEQ NO. 6 (Rat UDPGT1.1) mRNA) was 4.6 fold and the “Fold Change AFLP” value [2, 5] was 1.7 fold. The “Fold Change AFLP” value [2, 6] was 4.2 fold, the “Fold Change AFLP” value [2, 7] was 16 fold and the “Fold Change AFLP” value [2, 8] was 0.04 fold. For the same molecule, the “Fold Change AFLP” value [2, 9] was 2.5 fold, the “Fold Change AFLP” value [2, 10] was 1.9 fold and the “Fold Change AFLP” value [2, 11] was 2.3 fold. The “Fold Change AFLP” value [2, 12] was 0.3 fold, the “Fold Change AFLP” value [2, 13] was 6.3 fold and the “Fold Change AFLP” value [2, 14] was 3.8 fold. For the same molecule, the “Fold Change AFLP” value [2, 15] was 0.32 fold, the “Fold Change AFLP” value [2, 16] was 4 fold and the “Fold Change AFLP” value ([2]; SEQ NO. 179 (Rat UDPGT) mRNA) was 10.5 fold. For the same molecule, the “Fold Change AFLP” value [2, 17] was 1.3 fold and the “Average expression level of P450 2B1 mRNA as compared to control rats” value (rat liver mRNA [3]) was “substantial induction”.
